# Laboratory results as given in patent US20120302614A1, “METHOD FOR IMPROVING CEREBRAL CIRCULATION OR TREATING A CEREBRAL BLOOD FLOW DISORDER” (OSAKA UNIVERSITY, priority 2007, published 2012).
# Tests used:
# [1] = Blood pressure, Test Example 2 (hydralazine as hypotensive control); format: in vivo, ddY mouse; conditions: after 4-week oral administration (day −1); olmesartan medoxomil 1 mg/kg/day, hydralazine 30 mg/kg/day
# Experimental: Further, assessment of blood pressure was performed by the tail-cuff method (using a sphygmomanometer wound around the mouse tail) (Bunag R D, J Lab Clin Med. 1971, 78, 957-62) immediately before the start of administration of olmesartan medoxomil or distilled water (day −30), immediately before (day −1) and immediately after (day 2) the Aβ intracerebroventricular administration, and after completion of the behavioral test (day 14) (see FIG. 1). […] The dose of olmesartan medoxomil was set at a low level of 1 mg/kg/day in view of the experimental results of Test Example 1. […] The number of successive interceptions by the subject of the two adjoining beams on each bank is counted as locomotion score. • Long-term retention: On day 12 after the completion of the hidden platform test as a water maze test, mice are released into the water and the time it takes them to reach the platform is measured. • Working memory task: The platform is transferred and fixed at a new place. Mice are given four consecutive trials at intervals of as short as 20 seconds, and the time it takes them to reach the platform is measured. […] In order to eliminate this influence, swimming speed is measured.
# [2] = system: Aβ injection model (Aβ 1-40 administered intracerebroventricularly); test: Morris water maze tests in Aβ injection model, Test Example 2; format: in vivo, ddY mouse; conditions: olmesartan medoxomil 1 mg/kg/day, hydralazine 30 mg/kg/day
# Experimental: The therapeutic effect of olmesartan medoxomil in Aβ injection model and the dose dependency thereof were examined according to the following experimental schedule. [Experimental Schedule]: Prior to the experiment, 8-week old male ddY mice were administered olmesartan medoxomil (0.5 mg/kg/day, 1 mg/kg/day, 3 mg/kg/day or 6 mg/kg/day) or distilled water orally for four weeks (day −28 to −1). Then, Aβ 1-40 was administered to the mice intracerebroventricularly (day 0). (Although Aβ 1-40 was administered into one of the lateral ventricles in WO 2006/059777, Aβ 1-40 was administered in Test Example 1 to both lateral ventricles with an interval of one day between two administrations. Except for this point, Aβ 1-40 administration was performed in the same manner as in WO 2006/059777.) From one week thereafter, a behavioral test to evaluate cognitive function (Morris water maze test; Morris R et al., J Neuroscience Methods 1984, 11, 47-60) was performed (day 7 to 12). As a negative control, mice which had received oral administration of distilled water for four weeks were administered Aβ 40-1 intracerebroventricularly. The administration of olmesartan medoxomil or distilled water was continued until the end of the behavioral test. Measurements were performed as described below. • Hidden platform test: A platform is placed below the water surface of a water pool 150 cm in diameter filled with white water-colored. Mice are released into the water, and the time it takes them to reach the platform is measured. This trial is performed three times a day and for five consecutive days. As they learn, mice become able to reach the platform more quickly day by day. • Visible platform test: Mice are released into the water under such conditions that they can see the platform. The time it takes them to reach the platform is measured. • Probe test: The platform is removed, and mice are released and allowed to swim freely. Those mice with good learning/memory swim in the quadrant where the platform was located searching for the platform. The time they spent in that quadrant is measured. • Annnulus crossing: The number of times mice crossed the platform in the probe test is counted. […] The dose of olmesartan medoxomil was set at a low level of 1 mg/kg/day in view of the experimental results of Test Example 1. […] As behavioral tests to assess cognitive function, Morris water maze tests were performed as in Test Example 1 (hidden platform test, visible platform test and probe test) and, in addition, an open field test was also performed. Further, long-term retention, working memory task and swimming speed were also examined in the Morris water maze tests. Measurements were performed as described below. • Open field test: A cubic box (30×30×30 cm) is used. On each X and Y bank of the open-field area, two infrared beams are attached 2 cm above the floor at a 10 cm interval. The number of successive interceptions by the subject of the two adjoining beams on each bank is counted as locomotion score. • Long-term retention: On day 12 after the completion of the hidden platform test as a water maze test, mice are released into the water and the time it takes them to reach the platform is measured. • Working memory task: The platform is transferred and fixed at a new place. Mice are given four consecutive trials at intervals of as short as 20 seconds, and the time it takes them to reach the platform is measured. […] In order to eliminate this influence, swimming speed is measured.
smiles,measurement,setting,value
"CCCc1nc(C(C)(C)O)c(C(=O)OCc2oc(=O)oc2C)n1Cc1ccc(-c2ccccc2-c2nnn[nH]2)cc1 [olmesartan medoxomil, (5-methyl-2-oxo-1,3-dioxolen-4-yl)methyl 4-(1-hydroxy-1-methylethyl)-2-propyl-1-[4-[2-(tetrazol-5-yl)phenyl]phenyl]methyl-imidazole-5-carboxylate]",blood pressure compared to distilled water administration group,[1],lowered significantly
same,annulus crossings: number of platform crossings compared to Aβ 1-40 administration group,[2]; Aβ 1-40 + drug,increased
same,hidden platform test: time to reach the platform,[2]; Aβ 1-40 + drug,shortened through successive sessions
same,long-term retention: time to reach the platform compared to Aβ 1-40 administration group,[2]; day 17,shortened
same,"spatial memory impairment and learning disability evoked by Aβ 1-40 (Morris water test, summary)",[2],significantly improved
same,working memory task: time to reach the platform compared to Aβ 1-40 administration group,[2],shortened
